The record followed here is patent US20210170002A1, “SLC45A2 PEPTIDES FOR IMMUNOTHERAPY” (Board of Regents, The University of Texas System, priority 2015, published 2021).

The subject of one data set is melanoma cells. Description: 51Cr release assay of SLC45A2-specific CD8 T cells against inhibitor-treated melanoma cells. The class given is cell-based, human. The note with it: melanoma cells treated for 48 hours. On the procedure: SLC45A2-specific CD8 T cells were assayed for specific lysis of SLC45A2-expressing or not expressing targets using standard 51Chromium (51Cr) release assay. Targets were labeled with 100 uCi of 51Cr for 2 hrs and after three times washing, the labeled targets plated triplicated well at a 2000 targets per well. Effector cells were incubated with targets as various effector:target (E:T) ratio. After 4 hours, 30 ul of supernatant was collected from each well and the 51Cr was measured by a gamma counter. The percentage of specific lysis was calculated.
(§1) Mel526 and A375 (BRAF V600E+) and MeWo (BRAF wild type) were treated with BRAF V600E inhibitor, dabrafenib (50 nM), or MEK inhibitor, Trametinib (50 nM) (GlaxoSmithKline) or both for 48 hours. Untreated melanomas were used as control.
Like other melanocyte differentiation proteins such as MART-1, gp100 and tyrosinase, the SLC45A2 gene is regulated by the MITF transcription factor (J Biol Chem, 2002, 277:402-406, Gen Soci Ame, 2008 178:761-769). MITF protein levels are suppressed by oncogenic BRAF through ERK-mediated phosphorylation and degradation (J Cell Biol, 2005, 170:703-708). […] Melanoma cells were treated with a specific inhibitor of BRAF V600E, dabrafenib (50 nM), or a MEK inhibitor, Trametinib (50 nM), or both for 48 hours and mRNA expression of SLC45A2 and MART-1 was analyzed by RT-PCR. […]

Data set [1] concerns mRNA expression of SLC45A2 and MART-1. Description: RT-PCR of SLC45A2 and MART-1 mRNA after MAPK pathway inhibitor treatment. The class given is cell-based, human. The note with it: 50 nM, 48 hours. On the procedure: Real time PCR was done with primers of SLC45A2, MART-1, gp100, and tyrosinase using power syber green PCR master mix (Applied biosystems life technologies). Values were normalized by the amount of the gene encoding GAPDH.
as §1
Like other melanocyte differentiation proteins such as MART-1, gp100 and tyrosinase, the SLC45A2 gene is regulated by the MITF transcription factor (J Biol Chem, 2002, 277:402-406, Gen Soci Ame, 2008 178:761-769). MITF protein levels are suppressed by oncogenic BRAF through ERK-mediated phosphorylation and degradation (J Cell Biol, 2005, 170:703-708). Thus, it was next investigated whether BRAF or MEK inhibitors can modulate SLC45A2 expression. Melanoma cells were treated with a specific inhibitor of BRAF V600E, dabrafenib (50 nM), or a MEK inhibitor, Trametinib (50 nM), or both for 48 hours and mRNA expression of SLC45A2 and MART-1 was analyzed by RT-PCR. […] To assess the killing effect of SCL45A2-specific CD8 T cells against melanoma cells after treatment with BRAF and MEK inhibitors, a ^51Cr release assay was performed in melanoma cells treated with a BRAF inhibitor, a MEK inhibitor or both for 48 hours.

Consider `CC(=O)Nc1cccc(-n2c(=O)n(C3CC3)c(=O)c3c(Nc4ccc(I)cc4F)n(C)c(=O)c(C)c32)c1` [Trametinib], for which the “cytotoxicity of SLC45A2-specific CD8 T cells against treated vs untreated melanoma cells” value in the data set on melanoma cells is “increased cytotoxicity”.

Consider `CC(C)(C)c1nc(-c2cccc(NS(=O)(=O)c3c(F)cccc3F)c2F)c(-c2ccnc(N)n2)s1` [dabrafenib], for which the “mRNA expression of SLC45A2 and MART-1” value in data set [1] (MeWo cells (wild type BRAF)) is “did not show an increased expression”; in data set [1] (Mel526 cells (BRAF V600E)) it was “significant increase”. For the same compound, the “cytotoxicity of SLC45A2-specific CD8 T cells against treated vs untreated melanoma cells” value in the data set on melanoma cells is listed as “increased cytotoxicity”.
